One may read the AUC as the area under the concentration-time curve, a measure of exposure.

The nature of series [1]: Model-predicted AUCτ in BP and CVF and CVF:BP AUC ratios. It counts as in vivo, HIV-infected pre-menopausal women.
For series [2] the following is noted: female, human, in vivo.
The test system of another series is wild-type HIV virus. The settings on record: cited from earlier work.
For series [3] the following is noted: non-compartmental analysis; ref [13]; cited from earlier work.
Series [4] is described as follows: Population pharmacokinetic co-modelling of blood plasma. Particulars: female, human.
For series [5] the following is noted: cited from earlier work.
[6] abbreviates: female, human, in vivo, CVF AUCτ:BP AUCτ ratio.
Setting [7] is: female, human, in vivo, CVF AUCτ:BP fAUCτ ratio.
The mark [8] stands for this setting: first dose, median (25th, 75th percentiles), model-predicted.
Where [9] appears, read: multiple dose, median (25th, 75th percentiles), model-predicted.

Read-outs that look alike come from different tables or passages of the source. Bounds are passed on as bounds.

As for `COC(=O)N[C@H](C(=O)N[C@@H](Cc1ccccc1)[C@@H](O)CN(Cc1ccc(-c2ccccn2)cc1)NC(=O)[C@@H](NC(=O)OC)C(C)(C)C)C(C)(C)C` [Atazanavir, atazanavir], the AUC in series [1] (female, human, in vivo, BP AUCτ, first dose, median (25th, 75th percentiles), model-predicted) was 25.3 ng·h/mL; in series [1] (female, human, in vivo, BP AUCτ, multiple dose, median (25th, 75th percentiles), model-predicted), 54.6 ng·h/mL; in series [1] (female, human, in vivo, CVF AUCτ, first dose, median (25th, 75th percentiles), model-predicted), 5.66 ng·h/mL; in series [1] (female, human, in vivo, CVF AUCτ, multiple dose, median (25th, 75th percentiles), model-predicted), 5.53 ng·h/mL. Also, the Kp was 0.299 in series [1] (setting [6]) and 2.14 in series [1] (setting [7]). Besides, the “BP fAUCτ (unbound)” value in series [1] (setting [8]) was 3.55 (0.867, 6.15) μg•h/L; in series [1] (setting [9]), 7.64 (1.61, 9.54) μg•h/L. Also, in series [2], the “ka,FD (first-order absorption rate constant, first dose)” value (from here on “ka,FD”) is 0.879 (79.5) [29.0] h^−1. For the same molecule, in series [2], the “tauFD (transit compartment transfer rate constant BP to CVF, first dose)” value (“tauFD” below) was 0.773 (145) [52.8] h^−1. Further, the “tauMD (transit compartment transfer rate constant BP to CVF, multiple dose)” value (shortened to “tauMD”) in series [2] is 1.41 (216) [85.2] h^−1. The “IC50 (concentration producing 50 % inhibition of wild-type HIV virus)” value in the series on wild-type HIV virus (ref [15]) is given as 11 ng/mL. Besides, the “penetration / exposure in CVF relative to BP (in words)” value in series [3] is recorded as “moderately penetrative”. The Vd in series [4] (in vivo) stood at 10.4 L.

For `O=C1Nc2ccc(Cl)cc2[C@@](C#CC2CC2)(C(F)(F)F)O1` [Efavirenz, efavirenz], the AUC in series [1] (female, human, CVF, oral, CVF AUCτ, multiple dose, median (25th, 75th percentiles), model-predicted) is 0.262 ng·h/mL; in series [1] (female, human, cervicovaginal fluid, oral, CVF AUCτ, first dose, median (25th, 75th percentiles), model-predicted), 0.0127 ng·h/mL; in series [1] (female, human, plasma, oral, BP AUCτ, first dose, median (25th, 75th percentiles), model-predicted) it was 24.5 ng·h/mL; in series [1] (female, human, plasma, oral, BP AUCτ, multiple dose, median (25th, 75th percentiles), model-predicted) it was 46.7 ng·h/mL. Further, the “CVF AUCτ:BP fAUCτ ratio” value in series [1] (female, human, in vivo) is listed as 0.527 (0.298, 1.28). Moreover, the Kp in series [1] (setting [6]) is 0.00527. In addition, the “BP fAUCτ (unbound)” value is given as 0.245 (0.161, 0.303) μg•h/L in series [1] (setting [8]) and 0.470 (0.339, 1.06) μg•h/L in series [1] (setting [9]). In series [2], the “ka,FD” value was 1.75 (52.7) [18.9] h^−1. For the same molecule, in series [2], the “ka,MD (first-order absorption rate constant, multiple dose)” value is 0.945 (139) [54.0] h^−1. The “tauFD” value in series [2] is 0.866 (208) [77.5] h^−1. Moreover, in series [2], the “tauMD” value was 0.383 (156) [55.8] h^−1. Also, the “estimated fu (protein-unbound fraction in blood)” value in series [5] (used in the model to control drug transfer into CVF, ref [14]–[17]) is 0.01. Besides, the “IC50 (concentration producing 50 % inhibition of wild-type HIV virus)” value with wild-type HIV virus (ref [36]) is 0.51 ng/mL. The “penetration / exposure in CVF relative to BP (in words)” value in series [3] is on record as “very low penetration into CVF”. The Vd in series [4] (cervicovaginal fluid, oral) turned out to be 2.55 L.

With `Nc1ccn([C@@H]2CS[C@H](CO)O2)c(=O)n1` [Lamivudine, lamivudine], in series [1] (female, human, in vivo, 150 mg), the “CVF AUCτ” value is on record as 10.0 (6.07, 48.9) μg•h/L. Also, the exposure (AUC) was 3.86 ng·h/mL in series [1] (female, human, in vivo, 150 mg, BP AUCτ); 10.1 ng·h/mL in series [1] (female, human, in vivo, 300 mg, BP AUCτ); 62.2 ng·h/mL in series [1] (female, human, in vivo, 300 mg, CVF AUCτ). Further, in series [5] (ref [17]), the protein binding is recorded as 40%.

For `C[C@H](Cn1cnc2c(N)ncnc21)OCP(=O)(O)O` [Tenofovir, tenofovir], the “BP fAUCτ (unbound)” value in series [1] (female, human, in vivo) was 2.38 (1.59, 4.35) μg•h/L. The AUC in series [1] (female, human, in vivo, BP AUCτ) is 2.56 ng·h/mL. For the same molecule, the AUC in series [1] (female, human, in vivo, CVF AUCτ) is 4.18 ng·h/mL. In addition, the Kp in series [1] (setting [6]) was 1.57. In addition, the Kp in series [1] (setting [7]) was 1.68. Also, in series [2], the “ka,FD” value was 1.72 (61.1) [99.8] h^−1; the “ka,MD (first-order absorption rate constant, multiple dose)” value is 1.05 (69.8) [30.0] h^−1; the “kg12 (transfer rate constant from CVF compartment 1 to 2)” value was 0.525 (203) [63.6] h^−1; the “kg21 (transfer rate constant from CVF compartment 2 to 1)” value was 0.323 (97.6) [60.7] h^−1. In series [2], the “tauFD” value was 1.53 (106) [71.1] h^−1 and the “tauMD” value is 1.24 (103) [130] h^−1. The protein binding in series [5] (ref [16]) is on record as under 7%.

The values above are taken from publication PMC3508718 (Clinical pharmacokinetics, 2012).
